Experimental data taken from PMC7750480, “A hybrid approach reveals the allosteric regulation of GTP cyclohydrolase I” (Proceedings of the National Academy of Sciences of the …, 2020).
Changes are numbered by the printed parent chain.

Tests used:
Format in all cases: binding
GCH1 [1] = target: T1, GCH1 (Homo sapiens, UniProt P30793); assay: protein-detected NMR titration (1H,13C HMQC), wild-type GCH1
T1 construct: The hGCH1 (42-250, N-terminal 6xHis Tag and TEV cleavage site); 6xHis (N); TEV cleavage site (N); made in house; host or cells: E. coli BL21(DE3)
T1 sequence (P30793 42-250): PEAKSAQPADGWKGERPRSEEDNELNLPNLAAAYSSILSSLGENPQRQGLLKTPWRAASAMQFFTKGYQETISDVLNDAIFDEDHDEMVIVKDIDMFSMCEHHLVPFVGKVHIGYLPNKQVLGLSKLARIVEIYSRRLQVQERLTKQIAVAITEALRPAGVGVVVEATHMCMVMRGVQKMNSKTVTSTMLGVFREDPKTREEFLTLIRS
Procedure: (§1) Finally, the F122A mutant was generated and characterized to check whether the structurally observed, F122-dependent closure of the active site plays a key role in GCH1 function. […] The fitted dissociation constant KD of GCH1 for the nonhydrolyzable GTP analog 7-deaza-GTP was determined by protein-detected NMR titrations. […] Therefore, the missing enzyme activity of the F122 mutant cannot be explained by reduced affinity to the substrate and must have other underlying causes.
(§2) Perdeuterated protein with selectively labeled protonated and ^13C-labeled alanine, isoleucine, leucine, and valine methyl groups {Ala^β-[^13CH3]; Ile^δ1-[^13CH3]; Leu^δ,Val^γ-[^12CD3/^13CH3]} was expressed as described in the literature ([64]). […] All spectra were recorded on a Bruker Avance III 800 MHz NMR spectrometer equipped with a cryogenic triple-resonance probe at 298 K. Fifty micromolars perdeuterated GCH1 monomer with selectively labeled methyl groups was dissolved in 1× PBS in D2O. The ^1H,^13C-HMQC spectra of the protein were recorded with increasing concentration of the nonhydrolyzable GTP analog 7-deaza-GTP up to a final concentration of 3.5 mM. Spectra were processed with Bruker Topspin 3.5 and analyzed using CcpNmr ([65]) analysis version 2. Chemical shift perturbation (CSP) was calculated using Eq. 1 and the binding curve was fitted using Eq. 2. […]

GCH1 F122A mutant = target: T2, GCH1 F122A mutant (Homo sapiens, UniProt P30793, F122A); assay: protein-detected NMR titration (1H,13C HMQC), F122A mutant
T2 construct: The hGCH1 (42-250, N-terminal 6xHis Tag and TEV cleavage site); 6xHis (N); TEV cleavage site (N); made in house; host or cells: E. coli BL21(DE3)
T2 sequence (P30793 42-250 F122A): T1 sequence (P30793 42-250) with F81A
Procedure: as §1, §2

GCH1 [2] = target: T1, GCH1; assay: STD-NMR titration of 7-deaza-GTP to GCH1 (initial slopes of build-up curves)
Excerpt: To shed more light onto the mechanism of BH4-induced inhibition of GCH1, we used saturation transfer difference (STD) NMR spectroscopy to study binding of the substrate analog 7-deaza-GTP to GCH1. STD-NMR can be used to determine the KD of ligands (feasible in the range between 10^−2 and 10^−6 M) and allows the making of qualitative statements about the change of ligand binding kinetics ([28]–[31]). STD-NMR experiments were based on a titration of 7-deaza-GTP to GCH1 in the presence or absence of BH4. We measured a series of STD build-up curves (i.e., STD effects at a constant ligand concentration but increasing saturation times) at each 7-deaza-GTP concentration for the protons H7 and H1′ of the substrate analog. From the concentration dependence of the initial build-up slopes, the dissociation constant as well as the maximum STD amplification for the monitored proton signal can be derived (Fig. 6 A and B).
Fig. 6. KD determination using initial slopes from STD-NMR build-up curves. (A) For each ligand concentration, a set of measurements was recorded applying different saturation times (tsat). To obtain STD-AFmax values and the saturation rate constants ksat from STD-NMR build-up curves, experimental STD-AF values were fit to a rising exponential: STD-AF = STD-AFmax (1−exp (−ksat tsat)). From the fitting parameters, initial build-up slopes (tsat = 0) were calculated: STD-AF0 = STD-AFmax ksat. These STD-AF0 values were plotted against the ligand concentration, yielding a binding isotherm from which KD can be derived by fitting the Langmuir binding model: STD-AF0 = Amax/(1+(KD/c)). Amax is a scaling factor representing the maximum STD amplification. Two different 7-deaza-GTP protons (H1′ and H7) were monitored in these experiments. (C) Assignment of relevant protons on structural formula of 7-deaza-GTP. TEXT PRINTED IN THE PICTURE: (B) H1': KD: 52 (5mM BH4); Amax: 732 (5mM BH4); KD: 326 (no BH4); Amax: 177 (no BH4) | (B) H7: KD: 157 (5mM BH4); Amax: 729 (5mM BH4); KD: 977 (no BH4); Amax: 400 (no BH4) DOUBTS OF THE COPYIST ABOUT THIS PICTURE: Panel B: the row labels H1' and H7 are monitored protons of one ligand (printed in panel A as 7da-GTP / 7-Deaza-GTP), not separate compounds; they are used as labels as printed / Panel B: no unit is printed for KD or Amax in the table
All NMR experiments were performed at 25 °C on a Bruker HD 600-MHz spectrometer equipped with a cryogenic QCI probe head. Deuterium oxide (D2O) NMR buffer solution containing 40 mM of a NaH2PO4 and Na2HPO4 mixture with 150 mM sodium chloride (NaCl) was adjusted to a pD of 7.4 (corrected). Suppression of broad protein resonances was achieved by a T1ρ filter ([60]), formed by a 50-ms spin lock pulse. STD-NMR spectra were acquired with WATERGATE water suppression using W5 hard pulse trains ([61]). Difference spectrum ligand signal intensities were divided by corresponding off-resonance spectrum signal intensities, resulting in relative STD intensity values. Multiplication by ligand excess factor yielded STD amplification factor (STD-AF) values ([28]). For selective protein signal saturation, a cascade of Gaussian-shaped pulses was applied. Series of measurements with different total saturation times (tsat) covering a range between 1.2 and 7.2 s were recorded for extraction of initial slopes from STD-AF build-up plots. An additional relaxation delay varying from 2.8 s to 0.4 s was inserted before the saturation cascade to keep constant the total time per scan. On-resonance irradiation was set to 0.16 parts per million (ppm), and off-resonance irradiation was set to 66 ppm. Depending on the ligand concentration, 64 to 1,024 scans were acquired for the STD experiments (32 to 512 scans each for on- and off-resonance). Considering the STD-AF to be directly proportional to the fraction of bound receptor gives rise to a hyperbolic dose–response curve (specific one-site binding model) when STD-AF values are measured with different ligand concentrations ([31]). […]

Q: What does the source list for `Nc1nc2c(ccn2C2OC(COP(=O)(O)OP(=O)(O)OP(=O)(O)O)C(O)C2O)c(=O)[nH]1` (stereo not shown) [7-deaza-GTP]?
A: Kd (GCH1 [1]): 798 µM; Kd (GCH1 F122A mutant): 669 µM; increase of maximum STD amplification (Amax), factor (GCH1 [2]; BH4-inhibited GCH1 compared to the uninhibited enzyme): about 3; factor of tighter binding to the allosterically inhibited GCH1 (GCH1 [2]; BH4-inhibited vs uninhibited GCH1): ~6; Kd (GCH1 [2]; KD (STD-NMR, initial slopes), proton H1', 5mM BH4): 52 µM; Kd (GCH1 [2]; KD (STD-NMR, initial slopes), proton H1', no BH4): 326 µM; Kd (GCH1 [2]; KD (STD-NMR, initial slopes), proton H7, 5mM BH4): 157 µM; Kd (GCH1 [2]; KD (STD-NMR, initial slopes), proton H7, no BH4): 977 µM; Kd (GCH1 [2]; KD, BH4-bound inhibited hGCH1): ~100 µM; Kd (GCH1 [2]; KD, free, active hGCH1): ~600 µM
